Among the test systems are A498 renal; DU-145 prostate; HCC-2998 colon; MALME-3M melanoma; NCI-H460 lung; OVCAR-4 ovarian; PC-3 prostate; SF-268 CNS; SF-295 CNS; SR leukemia.
Common to all, as to test: growth of human tumour cells (NCI), 48 h

Where “and” joins values, the source holds several entries; their conditions need not be identical. Equal entries are not always repeated.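 Test compounds were applied to cells in 96-well plates for 48 hours at 5 doses. GI50 marks 50% less growth. At the TGI there is no net growth.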

Take `COc1cc([C@@H]2c3cc4c(cc3C(OC3O[C@@H]5COC(C)O[C@H]5[C@H](O)[C@H]3O)C3COC(=O)[C@@H]32)OCO4)cc(OC)c1O` (some centres undefined): the GI50 is 0.605 µM with A498 renal; 1.2 µM with DU-145 prostate; 1.91 µM in the assay with HCC-2998 colon; 1.21 µM with MALME-3M melanoma; 0.116 µM with NCI-H460 lung; 14.4 µM with OVCAR-4 ovarian. In addition, the GI50 with PC-3 prostate was 5.59 µM; in the assay on SF-268 CNS, 1.22 µM; with SF-295 CNS, 0.72 µM; with SR leukemia, 0.0276 µM. The TGI is 14 µM with A498 renal; 5.78 µM in the assay on DU-145 prostate; 11.2 µM with HCC-2998 colon; 14.1 µM in the assay with MALME-3M melanoma; 6.88 µM in the assay on NCI-H460 lung; greater than 50 µM in the assay on OVCAR-4 ovarian. In addition, the TGI was greater than 50 µM with PC-3 prostate, 15.4 µM in the assay with SF-268 CNS and 9.83 µM in the assay on SF-295 CNS.
On to `O=C(CCl)Nc1cc(O)c2c(c1)C(=O)c1cccc(O)c1C2=O`, for which the GI50 with A498 renal is 3.17 µM; in the assay on DU-145 prostate, 1.56 µM; with HCC-2998 colon, 1.75 µM; in the assay with MALME-3M melanoma, 0.897 µM; with NCI-H460 lung it was 1.79 µM; with OVCAR-4 ovarian, 1.96 µM. Further, the GI50 in the assay with PC-3 prostate was 1.57 µM; in the assay with SF-268 CNS, 1.69 µM; in the assay with SF-295 CNS, 2.28 µM; in the assay on SR leukemia, 0.346 µM. The TGI in the assay with A498 renal came out at 36.6 µM; with DU-145 prostate, 2.94 µM; with HCC-2998 colon, 3.4 µM; in the assay on MALME-3M melanoma it was 2.58 µM; in the assay on NCI-H460 lung, 3.92 µM; with OVCAR-4 ovarian it was 7.23 µM. Besides, the TGI was 3.95 µM with PC-3 prostate, 3.9 µM with SF-268 CNS, 7.69 µM in the assay with SF-295 CNS and 2.86 µM with SR leukemia.
On to `O=C(O)C(=O)CBr`, for which the GI50 in the assay on A498 renal is greater than 100 µM; with DU-145 prostate, > 61.9 µM and 17 µM; in the assay with HCC-2998 colon, > 100 µM and 19.3 µM; in the assay on MALME-3M melanoma, > 41.7 µM and 16.9 µM; with NCI-H460 lung, > 100 µM and 21.2 µM; with OVCAR-4 ovarian, 17.5 µM and 17.4 µM. Further, the GI50 in the assay on PC-3 prostate was > 51.6 µM and 19.5 µM; in the assay with SF-268 CNS it was > 85.2 µM and 18.3 µM; with SF-295 CNS, greater than 100 µM; with SR leukemia, > 21.1 µM and 25.8 µM. Further, the TGI with A498 renal was greater than 100 µM; in the assay on DU-145 prostate, > 100 µM and 31.4 µM; in the assay with HCC-2998 colon, > 100 µM and 36.3 µM; in the assay with MALME-3M melanoma, > 59.1 µM and 32.5 µM; in the assay with NCI-H460 lung it was > 100 µM and 41.9 µM; in the assay with OVCAR-4 ovarian, 31.4 µM. Besides, the TGI was > 81.7 µM and 37.1 µM with PC-3 prostate; > 100 µM and 32.5 µM with SF-268 CNS; greater than 100 µM with SF-295 CNS; > 64.8 µM and 71.1 µM in the assay with SR leukemia.
In the case of `Cc1cc(S(=O)(=O)Nc2nc3cc(Cl)ccc3o2)c(SCc2ccccc2)cc1Cl`, the GI50 in the assay with A498 renal was 18.8 µM; with DU-145 prostate, 22.4 µM; with HCC-2998 colon, 18.9 µM; in the assay with MALME-3M melanoma, 19.3 µM; with NCI-H460 lung it was 21.7 µM; in the assay on OVCAR-4 ovarian it was 25.6 µM. In addition, the GI50 in the assay with PC-3 prostate is 21.5 µM; in the assay with SF-268 CNS it was 21.5 µM; in the assay on SF-295 CNS, 18.7 µM; in the assay with SR leukemia, 46 µM. The TGI in the assay on A498 renal was determined as 35.5 µM; with DU-145 prostate it was 45.9 µM; with HCC-2998 colon it was 37.4 µM; in the assay on MALME-3M melanoma, 48.5 µM; in the assay with NCI-H460 lung, 58.5 µM; in the assay with OVCAR-4 ovarian, 74.7 µM. Moreover, the TGI is 43.5 µM with PC-3 prostate, 49.7 µM in the assay with SF-268 CNS, 46.1 µM in the assay with SF-295 CNS and greater than 100 µM with SR leukemia.
In the case of `CCCn1c(N)c(C(=O)CNc2ccc(I)cc2)c(=O)[nH]c1=O`, the GI50 with A498 renal was 27.5 µM; in the assay with DU-145 prostate it was 7.12 µM; with HCC-2998 colon, 4.23 µM; in the assay with MALME-3M melanoma, 45.6 µM; in the assay with NCI-H460 lung, 0.393 µM; in the assay on OVCAR-4 ovarian, greater than 100 µM. The GI50 is 5.44 µM with PC-3 prostate, 4.55 µM with SF-268 CNS, 0.795 µM in the assay with SF-295 CNS and 0.378 µM with SR leukemia. Also, the TGI in the assay with A498 renal was greater than 100 µM; in the assay with DU-145 prostate, greater than 100 µM; with HCC-2998 colon, greater than 90.6 µM; with MALME-3M melanoma, greater than 100 µM; in the assay with NCI-H460 lung, greater than 100 µM; with OVCAR-4 ovarian, greater than 100 µM. The TGI in the assay on PC-3 prostate is greater than 100 µM; in the assay on SF-268 CNS it was greater than 100 µM; with SF-295 CNS, greater than 63.6 µM; with SR leukemia it was 28.3 µM.
Regarding `Cn1ncc(-c2ccc3c(=O)[nH]nc(CN)c3c2)c1-c1c(F)cc2ccccc2c1C#N`, the GI50 is 11.7 µM with A498 renal; 8.59 µM with DU-145 prostate; 8.63 µM in the assay with HCC-2998 colon; 4.57 µM in the assay on MALME-3M melanoma; 3.67 µM in the assay on NCI-H460 lung; 7.67 µM in the assay on OVCAR-4 ovarian. For the same molecule, the GI50 is 8.21 µM with PC-3 prostate, 4.74 µM with SF-268 CNS, 11.7 µM in the assay with SF-295 CNS and 1.1 µM in the assay with SR leukemia. For the same molecule, the TGI with A498 renal amounted to 23.9 µM; in the assay on DU-145 prostate, 21.1 µM; with HCC-2998 colon, 20.8 µM; in the assay with MALME-3M melanoma, 17.6 µM; in the assay with NCI-H460 lung it was 14.6 µM; in the assay with OVCAR-4 ovarian, 25.2 µM. The TGI in the assay with PC-3 prostate was 23.6 µM; in the assay on SF-268 CNS, 20.6 µM; with SF-295 CNS, 24.6 µM; in the assay on SR leukemia, 13.1 µM.

(Values after PubChem BioAssay (NCI).)
